This passage reports melting point and IC50 results from publication PMC10385824, “Antiproliferative and Tubulin-Destabilising Effects of 3-(Prop-1-en-2-yl)azetidin-2-Ones and Related Compounds in MCF-7 and MDA-MB-231 Breast Cancer Cells” (Pharmaceuticals, 2023).

The test system of series [1] is MCF-7 human breast cancer cells. Put plainly: cells.
Protocol: All biochemical assays were performed in triplicate for the determination of mean values reported. The human breast carcinoma cell line MCF-7 was purchased from the European Collection of Animal Cell Cultures (ECACC) and was cultured in Eagle’s minimum essential medium with 10% fetal bovine serum, 2 mM L-glutamine and 100 μg/mL penicillin/streptomycin. The medium was supplemented with 1% non-essential amino acids. […] All cells were sub-cultured 3 times/week by trypsinisation.
Cells were seeded at a density of 5 × 10^3 cells/well (MCF-7) in triplicate in 96-well plates. […] Cell proliferation for MCF-7 and MDA-MB-231 cells was analysed using the Alamar Blue assay (Invitrogen Corp.). […] Experiments were performed in triplicate on at least three separate occasions.
Setting [2] is: MCF7, 72 h, read-out: Antiproliferative Activity IC50, MCF-7, 72 h, eight concentrations (0.001–50 mM [sic]), mean ± SEM, Table 5.
Where [3] appears, read: MCF7, 72 h, read-out: Antiproliferative Activity IC50, MCF-7, 72 h, eight concentrations 1–50 μM, mean ± SEM, Table 2.
The mark [4] stands for this setting: MCF7, read-out: Antiproliferative Activity IC50.
The mark [5] stands for this setting: MCF7, read-out: Antiproliferative Activity IC50, MCF-7, eight concentrations 0.001–50 μM, mean ± SEM, Table 3.
Where [6] appears, read: MCF7, read-out: Antiproliferative Activity IC50, MCF-7, eight concentrations 0.001–50 μM, mean ± SEM, Table 4.
The mark [7] stands for this setting: MCF7, 72 h, MCF-7, Figure 2, 72 h.

Structures are written as SMILES. Where two headings read alike, the source gives them in different places.

The melting point is the temperature, or range, at which the solid turns liquid. As for `C=C(C)C1C(=O)N(c2cc(OC)c(OC)c(OC)c2)C1c1ccc(OCCCC)cc1` (stereo not shown) [9j, 4-(4-Butoxyphenyl)-1-(3,4,5-trimethoxyphenyl)-3-(prop-1-en-2-yl)azetidine-2-one], the melting point was in the range of 55 to 57 °C. For the molecule `COc1ccc(C2C(CC=Cc3ccccc3)C(=O)N2c2cc(OC)c(OC)c(OC)c2)cc1O` (stereo not shown) [17b, 3-Cinnamyl-4-(3-hydroxy-4-methoxyphenyl)-1-(3,4,5-trimethoxyphenyl)azetidin-2-one], in series [1] (setting [2]), the IC50 is 1.09 ± 0.08 µM. In turn, `C=C(C)C1C(=O)N(c2cc(OC)c(OC)c(OC)c2)C1c1ccc(F)cc1` (stereo not shown) [9d, 4-(4-Fluorophenyl)-1-(3,4,5-trimethoxyphenyl)-3-(prop-1-en-2-yl)azetidin-2-one] showed a melting point of 99 to 100 °C. In addition, the IC50 in series [1] (setting [3]) came out at 0.691 ± 0.1 µM.

As to `C=CCC1C(=O)N(c2cc(OC)c(OC)c(OC)c2)C1c1ccc(OC)c(OP(=O)(O)O)c1` (stereo not shown) [15c, 5-(3-Allyl-1-(3,4,5-trimethoxyphenyl)-4-oxoazetidin-2-yl)-2-methoxyphenyl dihydrogen phosphate], the IC50 in series [1] (setting [4]) turned out to be 0.094 ± 0.015 µM. On to `C=CCC1C(=O)N(c2cc(OC)c(OC)c(OC)c2)C1c1ccccc1` (stereo not shown) [10f, 3-Allyl-4-phenyl-1-(3,4,5-trimethoxyphenyl)azetidin-2-one], for which, in series [1] (setting [5]), the IC50 is 9.61 ± 1.2 µM. As for `COc1ccc(C2C(CC=Cc3ccc(C(F)(F)F)cc3)C(=O)N2c2ccccc2)cc1` (stereo not shown) [17e, 3-(4-(Trifluoromethyl)cinnamyl)-4-(4-methoxyphenyl)-1-phenylazetidin-2-one], the IC50 in series [1] (setting [2]) came out at 4.76 ± 0.56 µM.

For the molecule `C=CCC1C(=O)N(c2cc(OC)c(OC)c(OC)c2)C1c1ccc(Oc2ccccc2)cc1` (stereo not shown) [10k, 3-Allyl-4-(4-phenoxyphenyl)-1-(3,4,5-trimethoxyphenyl)azetidin-2-one], the IC50 in series [1] (setting [5]) amounted to 7.49 ± 0.6 µM. The molecule `COc1cc(N2C(=O)C(C3C=CCC4C(=O)OC(=O)C43)C2c2ccc(Br)cc2)cc(OC)c1OC` (stereo not shown) [21b, 4-(2-(4-Bromophenyl)-1-(3,4,5-trimethoxyphenyl)-4-oxoazetidin-3-yl)-3a,4,7,7a-tetrahydroisobenzofuran-1,3-dione] yielded a melting point of 242 to 244 °C. The IC50 in series [1] (setting [2]) turned out to be 96.2 ± 13.5 µM. In the case of `C=C/C=C/C1C(=O)N(c2cc(OC)c(OC)c(OC)c2)C1c1ccc(N(C)C)cc1` (stereo not shown) [11e, (E)-3-(Buta-1,3-dien-1-yl)-4-(4-dimethylaminophenyl)-1-(3,4,5-trimethoxyphenyl)azetidin-2-one], the IC50 in series [1] (setting [6]) was determined as 1.93 ± 0.34 µM.

In the case of `C=CCC1C(=O)N(c2cc(OC)c(OC)c(OC)c2)C1c1ccc(OCC)cc1` (stereo not shown) [10i, 3-Allyl-4-(4-ethoxyphenyl)-1-(3,4,5-trimethoxyphenyl)azetidin-2-one], the IC50 in series [1] (setting [5]) worked out at 0.091 ± 0.01 µM. On to `COc1ccc(C2C(C=Cc3ccc(C(F)(F)F)cc3)C(=O)N2c2cc(OC)c(OC)c(OC)c2)cc1` (stereo not shown) [compound 19, 3-(4-(Trifluoromethyl)styryl)-1-(3,4,5-trimethoxyphenyl)-4-(4-methoxyphenyl)azetidin-2-one], for which the IC50 in series [1] (setting [2]) was determined as 7.71 ± 0.78 µM. As to `C=CCC1C(=O)N(c2cc(OC)c(OC)c(OC)c2)C1c1ccc(N(C)C)cc1` (stereo not shown) [10e, 3-Allyl-4-(4-dimethylaminophenyl)-1-(3,4,5-trimethoxyphenyl)azetidin-2-one], the IC50 in series [1] (setting [5]) was 4.46 ± 0.11 µM. In the case of `C=CCC1C(=O)N(c2cc(OC)c(OC)c(OC)c2)C1c1ccc(OC)c(NC(=O)C(N)Cc2ccccc2)c1` (stereo not shown) [13b, N-(5-(3-Allyl-1-(3,4,5-trimethoxyphenyl)-4-oxoazetidin-2-yl)-2-methoxyphenyl)-2-amino-3-phenylpropanamide], the IC50 in series [1] (setting [5]) was determined as 10.7 ± 1.94 µM. Take `C=C/C=C/C1C(=O)N(c2cc(OC)c(OC)c(OC)c2)C1c1ccc(OC)c(NC(=O)C(N)C(C)C)c1` (stereo not shown) [13d, 2-Amino-N-(5-(3-((E)-buta-1,3-dienyl)-1-(3,4,5-trimethoxyphenyl)-4-oxoazetidin-2-yl)-2-methoxyphenyl)-3-methylbutanamide]: in series [1] (setting [6]), the IC50 stood at 24.2 ± 3.91 µM. In the case of `COc1cc(N2C(=O)C(CC3CO3)C2c2ccccc2)cc(OC)c1OC` (stereo not shown) [compound 20, 1-(3,4,5-Trimethoxyphenyl)-3-((oxiran-2-yl)methyl)-4-phenylazetidin-2-one], the IC50 in series [1] (setting [2]) was found to be 51.5 ± 5.46 µM. As to `C=CCC1C(=O)N(c2cc(OC)c(OC)c(OC)c2)C1c1ccc(Br)cc1` (stereo not shown) [10c, 3-Allyl-4-(4-bromophenyl)-1-(3,4,5-trimethoxyphenyl)azetidin-2-one], the IC50 in series [1] (setting [5]) turned out to be 0.944 ± 0.1 µM. Consider `O=C1C(CC=Cc2ccccc2)C(c2ccccc2)N1c1ccccc1` (stereo not shown) [17c, 3-Cinnamyl-1,4-diphenylazetidin-2-one], for which the IC50 in series [1] (setting [2]) amounted to 75.4 ± 8.12 µM. As for `C=CCC1C(=O)N(c2cc(OC)c(OC)c(OC)c2)C1c1ccc(Cl)cc1` (stereo not shown) [10b, 3-Allyl-4-(4-chlorophenyl)-1-(3,4,5-trimethoxyphenyl)azetidin-2-one], the IC50 in series [1] (setting [5]) worked out at 0.621 ± 0.095 µM.

Take `C=C(C)C1C(=O)N(c2cc(OC)c(OC)c(OC)c2)C1c1ccc(OC)c(NC(=O)C(N)Cc2ccccc2)c1` (stereo not shown) [13a, 2-Amino-N-(2-methoxy-5-(1-(3,4,5-trimethoxyphenyl)-4-oxo-3-(prop-1-en-2-yl)azetidin-2-yl)phenyl)-3-phenylpropanamide]: in series [1] (setting [7]), the IC50 was 4.92 µM. Take `C=CC=CC1C(=O)N(c2cc(OC)c(OC)c(OC)c2)C1c1ccc(OC)c(NC(=O)CN)c1` (stereo not shown) [13e, 2-Amino-N-(5-(3-(buta-1,3-dienyl)-1-(3,4,5-trimethoxyphenyl)-4-oxoazetidin-2-yl)-2-methoxyphenyl)acetamide]: the IC50 in series [1] (setting [6]) worked out at 9.36 ± 1.21 µM. The molecule `C=C(C)C1C(=O)N(c2ccccc2)C1c1ccc(OC)cc1` (stereo not shown) [9x, 4-(4-Methoxyphenyl)-1-phenyl-3-(prop-1-en-2-yl)azetidin-2-one] displayed a melting point of 104 to 105 °C. Take `C=CCC1C(=O)N(c2cc(OC)c(OC)c(OC)c2)C1c1ccc2ccccc2c1` (stereo not shown) [10n, 3-Allyl-4-naphthalen-2-yl-1-(3,4,5-trimethoxyphenyl)azetidin-2-one]: the IC50 in series [1] (setting [5]) is 0.318 ± 0.03 µM. In the case of `C=C(C)C1C(=O)N(c2cc(OC)c(OC)c(OC)c2)C1c1cccc2ccccc12` (stereo not shown) [9m, 4-Naphthalen-1-yl-1-(3,4,5-trimethoxyphenyl)-3-(prop-1-en-2-yl)azetidin-2-one], the figures for the IC50 in series [1] (setting [7]) and in series [1] (setting [3]) were 8.07 µM and 44.1 ± 2.57 µM, respectively.

For `CCOC(=O)CC1C(=O)N(c2cc(OC)c(OC)c(OC)c2)C1c1ccc(OC)c(O)c1` (stereo not shown) [17g, Ethyl-2-(2-(3-hydroxy-4-methoxyphenyl)-1-(3,4,5-trimethoxyphenyl)-4-oxoazetidin-3-yl)acetate], the IC50 in series [1] (setting [2]) was 0.075 ± 0.01 µM. On to `C=C/C=C/C1C(=O)N(c2ccccc2)C1c1ccc(OC)cc1` (stereo not shown) [11s, (E)-3-(Buta-1,3-dien-1-yl)-4-(4-methoxyphenyl)-1-phenylazetidin-2-one], for which the IC50 in series [1] (setting [6]) is 15.2 ± 1.41 µM. For `C=CCC1C(=O)N(c2cc(OC)c(OC)c(OC)c2)C1c1ccc(OC)c(NC(=O)C(N)C(C)C)c1` (stereo not shown) [13c, N-(5-(3-Allyl-1-(3,4,5-trimethoxyphenyl)-4-oxoazetidin-2-yl)-2-methoxyphenyl)-2-amino-3-methylbutanamide], the IC50 in series [1] (setting [5]) was found to be 13 ± 1.25 µM. Molecule `COC(=O)C1=C(C(=O)OC)C(C2C(=O)N(c3cc(OC)c(OC)c(OC)c3)C2c2cccc3ccccc23)CC=C1` (single isomer, unassigned) [22a, Dimethyl-6-(1-(3,4,5-trimethoxyphenyl)-2-(naphthalen-1-yl)-4-oxoazetidin-3-yl)cyclohexa-1,3-diene-1,2-dicarboxylate] returned a melting point of 120 to 122 °C. For the molecule `C=C/C=C/C1C(=O)N(c2cc(OC)c(OC)c(OC)c2)C1c1ccc2ccccc2c1` (stereo not shown) [11n, (E)-3-(Buta-1,3-dien-1-yl)-4-(naphthalen-2-yl)-1-(3,4,5-trimethoxyphenyl)azetidin-2-one], the IC50 in series [1] (setting [6]) is 0.296 ± 0.05 µM. Regarding `C=C/C=C/C1C(=O)N(c2cc(OC)c(OC)c(OC)c2)C1c1ccc(OCCCC)cc1` (stereo not shown) [11j, (E)-3-(Buta-1,3-dien-1-yl)-4-(4-butoxyphenyl)-1-(3,4,5-trimethoxyphenyl)-azetidin-2-one], the IC50 in series [1] (setting [6]) was found to be 182 ± 19.4 µM.

Regarding `C=C/C=C/C1C(=O)N(c2cc(OC)c(OC)c(OC)c2)C1c1ccc(OCc2ccccc2)cc1` (stereo not shown) [11l, (E)-3-(Buta-1,3-dien-1-yl)-4-(4-benzyloxyphenyl)-1-(3,4,5-trimethoxyphenyl)azetidin-2-one], the IC50 in series [1] (setting [6]) stood at 145 ± 11.7 µM. Take `C=CCC1C(=O)N(c2ccccc2)C1c1ccc(OC)cc1` (stereo not shown) [10s, 3-Allyl-4-(4-Methoxyphenyl)-1-phenylazetidin-2-one]: in series [1] (setting [5]), the IC50 turned out to be 84.5 ± 8.1 µM.

For `CCCC1C(=O)N(c2cc(OC)c(OC)c(OC)c2)C1c1ccc(OC)c(OP(=O)(O)O)c1` (stereo not shown) [15d, 2-Methoxy-5-(1-(3,4,5-trimethoxyphenyl)-4-oxo-3-propylazetidin-2-yl)phenyl dihydrogen phosphate], the IC50 in series [1] (setting [4]) stood at 0.032 ± 0.005 µM. The molecule `C=C(C)C1C(=O)N(c2cc(OC)c(OC)c(OC)c2)C1c1ccc(OC)c([N+](=O)[O-])c1` (stereo not shown) [9r, 4-(4-Methoxy-3-nitrophenyl)-1-(3,4,5-trimethoxyphenyl)-3-(prop-1-en-2-yl)azetidin-2-one] returned an IC50 in series [1] (MCF7) of 0.01 to 0.033 µM. As to `C=C(C)C1C(=O)N(c2cc(OC)c(OC)c(OC)c2)C1c1ccc(Oc2ccccc2)cc1` (stereo not shown) [9k, 4-(4-Phenoxyphenyl)-1-(3,4,5-trimethoxyphenyl)-3-(prop-1-en-2-yl)azetidin-2-one], the melting point was in the range of 126 to 127 °C. As to `COc1ccc(C2C(CC=Cc3ccc(C(F)(F)F)cc3)C(=O)N2c2cc(OC)c(OC)c(OC)c2)cc1` (stereo not shown) [17d, 3-(4-(Trifluoromethyl)cinnamyl)-4-(4-methoxyphenyl)-1-(3,4,5-trimethoxyphenyl) azetidin-2-one], in series [1] (setting [2]), the IC50 came to 49.5 ± 5.23 µM. As for `C=CCC1C(=O)N(c2cc(OC)c(OC)c(OC)c2)C1c1ccc(OCCCC)cc1` (stereo not shown) [10j, 3-Allyl-4-(4-butoxyphenyl)-1-(3,4,5-trimethoxyphenyl)azetidin-2-one], in series [1] (setting [5]), the IC50 was determined as 17.4 ± 1.23 µM.

Turning to `C=CCC1C(=O)N(c2cc(OC)c(OC)c(OC)c2)C1c1ccc([N+](=O)[O-])cc1` (stereo not shown) [10a, 3-Allyl-4-(4-nitrophenyl)-1-(3,4,5-trimethoxyphenyl)azetidin-2-one], in series [1] (setting [5]), the IC50 is 4.13 ± 0.62 µM.
